Laboratory results reported in patent US11382898B2, “BAX activators and uses thereof in cancer therapy” (Albert Einstein College of Medicine, priority 2017, dated 2022).
Each block holds one compound with its values, some of them ahead of it. Positions of bridges follow the written chain, without caps; N, C: chain ends. Non-standard residues stand in square brackets, D forms with d. Residues, ends and D or L forms follow the SMILES beside them. S5 = C=CCCC[C@](C)(N)C(=O)O

Tests used:
THP-1 and OCI-AML3 cells = test: Viability assay of AML cells treated with venetoclax or BTSA1 alone or in combination; assay type: cell-based, human; conditions: BTSA1 at ~EC10 dose, 24 hrs
Excerpt: Moreover, the synergistic effect of these two drugs is observed within hours, consistent with their kinetics of mitochondrial apoptosis activation.

OCI-AML3 leukemia cells = test: Synergistic cytotoxicity with BCL-2 inhibitors in OCI-AML3 leukemia cells; assay type: cell-based, human; conditions: for IC50: Homo sapiens, OCI-AML-3, 24 h, 24 h treatment; for synergy with ABT-199 (venetoclax) / synergy with ABT-263 (navitoclax): non-cytotoxic doses, 24 h
Protocol: Viability assays were performed in at least triplicate and the data normalized to vehicle-treated control wells. IC50 values were determined by nonlinear regression analysis using Prism software (Graphpad).

BAX [1] = molecular target: T1, BAX (Homo sapiens, UniProt Q07812); test: Direct fluorescence polarization binding of fluorescein-labeled BTSA1 to BAX; conditions: fluorescein-labeled compound
T1 construct: with serial dilutions of full-length BAX, BCL-XLΔC, MCL-1ΔNΔC, BFL-1/A1ΔC; made in house; host or cells: Escherichia coli
T1 sequence (Q07812 whole entry): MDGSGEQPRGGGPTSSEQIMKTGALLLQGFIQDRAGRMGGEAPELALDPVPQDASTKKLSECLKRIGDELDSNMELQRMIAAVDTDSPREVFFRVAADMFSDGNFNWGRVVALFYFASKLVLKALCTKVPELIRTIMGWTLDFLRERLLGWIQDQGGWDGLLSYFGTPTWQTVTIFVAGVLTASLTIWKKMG

BAX [2] = molecular target: T1, BAX; test: Competitive fluorescence polarization assay, FITC-BIM SAHBA2 from the BAX trigger site; assay type: binding; conditions: for IC50: FITC-BIM SAHBA2 50 nM, BAX 500 nM, read-out: IC50, competition of FITC-BIM SAHBA2 from BAX
Protocol: (§1) Fluorescence polarization assays (FPA) were performed as previously described (Gavathiotis et al., 2012). Firstly, direct binding isotherms were generated by incubating FITC-BIM SAHBA2 (50 nM) with serial dilutions of full-length BAX, BCL-XLΔC, MCL-1ΔNΔC, BFL-1/A1ΔC and fluorescence polarization was measured at 20 minutes on a F200 PRO microplate reader (TECAN). Subsequently, in competition assays, a serial dilution of small molecule or acetylated BIM SAHBA2 (Ac-BIM SAHB) was combined with FITC-BIM SAHBA2 (50 nM), followed by the addition of recombinant protein at ˜EC75 concentration, as determined by the direct binding assay (BAX: 500 nM; BCL-XLΔC, MCL-1ΔNΔC, BFL-1/A1ΔC: 200 nM).
(§2) A competitive fluorescence polarization assay that evaluates the capacity of compounds to compete a fluorescein-labeled stapled peptide of the BIM BH3 helix, FITC-BIM SAHBA2, from the BAX trigger site, was used to determine the binding potency (Gavathiotis et al., 2008; Gavathiotis et al., 2012).

[3] = tested on: anti-apoptotic BCL-2 family proteins (BCL-2, BCL-XL, MCL-1); test: Pull down assay with biotinylated BTSA1, anti-apoptotic BCL-2 family proteins; assay type: binding, human
Protocol: OCI-AML3, MEFs and HPB-ALL cytosolic and mitochondrial lysates were generated by Dounce Homogenization. Cells were lysed by Dounce homogenizer in lysis buffer (LB) containing 10 mM Tris, pH 7.5, 1 mM EGTA, 200 mM sucrose plus Complete Protease Inhibitors. The cell lysates were centrifuged at 700×g for 10 min to remove unbroken cells and nuclei. The supernatants were centrifuged at 12000× g for 10 min at 4° C. and the resulting pellet was collected as the mitochondrial fraction and supernatant as the cytosolic fraction. The mitochondrial fraction was resuspended in LB+1% CHAPS to solubilize proteins. […] Biotin capture was achieved by incubation with high capacity streptavidin agarose (50 μL 50% slurry/reaction—Pierce) for 1 hour at room temperature. The streptavidin beads were washed (3×) at room temperature with 1×PBS. Cellular BAX bound to the biotinylated-BTSA1 was eluted by boiling for 20 minutes in LDS buffer and then subjected to BAX (2772S, Cell Signaling), BCL-2 (BD Biosciences Cat. 610539), BCL-XL (Cell Signaling Cat. 2764) and MCL-1 (Cell Signaling Cat. 4572) western blot analysis.

BCL-XL = molecular target: T2, BCL-XL (Homo sapiens, UniProt Q07817); test: Competitive fluorescence polarization assay, FITC-BIM SAHBA2 bound to BCL-XL; assay type: binding; conditions: BTSA1 at 50 μM
T2 construct: BCL-XLΔC, MCL-1ΔNΔC, BFL-1/A1ΔC: 200 nM; made in house; host or cells: Escherichia coli
T2 sequence (Q07817 1-212 limits assumed): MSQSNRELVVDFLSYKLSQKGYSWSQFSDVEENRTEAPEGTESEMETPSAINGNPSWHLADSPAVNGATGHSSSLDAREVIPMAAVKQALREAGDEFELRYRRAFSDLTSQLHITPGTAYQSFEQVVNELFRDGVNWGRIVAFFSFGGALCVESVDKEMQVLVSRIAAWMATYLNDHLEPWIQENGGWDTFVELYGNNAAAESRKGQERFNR
Protocol: as §1, §2

MCL-1 = test: Competitive fluorescence polarization assay, FITC-BIM SAHBA2 bound to MCL-1; assay type: binding, Human; conditions: BTSA1 at 50 μM
Protocol: as §1, §2

BFL-1/A1 = test: Competitive fluorescence polarization assay, FITC-BIM SAHBA2 bound to BFL-1/A1; assay type: binding, Human; conditions: BTSA1 at 50 μM
Protocol: as §1, §2

EC50 (BAX [1]): 144 nM
Structure (SMILES): O=C(NCCCOCCOCCOCCCNC(=S)Nc1ccc2c(c1)C(=O)OC21c2ccc(O)cc2Oc2cc(O)ccc21)c1ccc(-c2csc(N3N=C(c4ccccc4)C(=NNc4nccs4)C3=O)n2)cc1 [fluorescein-labeled BTSA1, N-(1-((3′,6′-dihydroxy-3-oxo-3H-spiro[isobenzofuran-1,9′-xanthen]-5-yl)amino)-1-thioxo-6,9,12-trioxa-2-azapentadecan-15-yl)-4-(2-(5-oxo-3-phenyl-4-(2-(thiazol-2-yl)hydrazineylidene)-4,5-dihydro-1H-pyrazol-1-yl)thiazol-4-yl)-benzamide]

reduction in binding capacity to BAX relative to BTSA1 (BAX [2]): ten-fold
IC50 (BAX [2]): 2000 nM
Structure (SMILES): O=C(CCCC[C@H]1SCC2NC(=O)NC21)NCCCOCCOCCOCCCNC(=O)c1ccc(-c2csc(N3N=C(c4ccccc4)C(=NNc4nccs4)C3=O)n2)cc1 (stereo partly drawn) [biotinylated BTSA1, N-(15-oxo-19-((4R)-2-oxohexahydro-1H-thieno[3,4-d]imidazol-4-yl)-4,7,10-trioxa-14-azanonadecyl)-4-(2-(5-oxo-3-phenyl-4-(2-(thiazol-2-yl)hydrazono)-4,5-dihydro-1Hpyrazol-1-yl)thiazol-4-yl)benzamide]
pull down of anti-apoptotic BCL-2 family proteins [3]: failed to pull down

reduction in binding capacity to BAX relative to BTSA1 (BAX [2]): ~10 fold
IC50 (BAX [2]): 3700 nM
Structure (SMILES): CC1=NN(c2nc(-c3ccccc3)cs2)C(=O)C1=NNc1nccs1 [BTSA2]

The remaining lines, values behind:

Structure (SMILES): CC1(C)CCC(CN2CCN(c3ccc(C(=O)NS(=O)(=O)c4ccc(NCC5CCOCC5)c([N+](=O)[O-])c4)c(Oc4cnc5[nH]ccc5c4)c3)CC2)=C(c2ccc(Cl)cc2)C1 [ABT-199, 4-(4-{[2-(4-Chlorophenyl)-4,4-dimethyl-1-cyclohexen-1-yl]methyl}-1-piperazinyl)-N-({3-nitro-4-[(tetrahydro-2H-pyran-4-ylmethyl)amino]phenyl}sulfonyl)-2-(1H-pyrrolo[2,3-b]pyridin-5-yloxy)benzamide]
EC50 of venetoclax in combination with BTSA1 (THP-1 and OCI-AML3 cells): low nM concentration
IC50 (OCI-AML3 leukemia cells; BAX activator concentration 0.625 μM): 3.91 µM
IC50 (OCI-AML3 leukemia cells; BAX activator concentration 1.25 μM): 4.8 µM
IC50 (OCI-AML3 leukemia cells; BAX activator concentration […]): 3.65 µM

Structure (SMILES): COc1ccc(C2=NN(c3nc(-c4ccccc4)cs3)C(=O)/C2=N\Nc2nccs2)cc1 [GAV2-010]
synergy with ABT-199 (venetoclax) (OCI-AML3 leukemia cells): significant synergistic cytotoxicity

Structure (SMILES): Cc1nc(N/N=C2\C(=O)N(c3nc(-c4ccccc4)cs3)N=C2c2ccccc2)sc1C [GAV2-006]
synergy with ABT-199 (venetoclax) (OCI-AML3 leukemia cells): significant synergistic cytotoxicity
synergy with ABT-263 (navitoclax) (OCI-AML3 leukemia cells): significant synergistic cytotoxicity

Structure (SMILES): CC[C@H](C)[C@H](NC(=O)[C@H](Cc1c[nH]c2ccccc12)NC(=O)[C@@H](NC(=O)[C@H](CCC(=O)O)NC(C)=O)[C@@H](C)CC)C(=O)N[C@@H](C)C(=O)N[C@@H](CCC(N)=O)C(=O)N[C@@H](CCC(=O)O)C(=O)N[C@@H](CC(C)C)C(=O)N[C@@H](CCCNC(=N)N)C(=O)N[C@@]1(C)CCCC=CCCC[C@@](C)(C(=O)N[C@@H](Cc2ccccc2)C(=O)N[C@@H](CC(N)=O)C(=O)N[C@@H](C)C(=O)N[C@@H](Cc2ccc(O)cc2)C(=O)N[C@@H](Cc2ccc(O)cc2)C(=O)N[C@@H](C)C(N)=O)NC(=O)[C@H](CC(=O)O)NC(=O)CNC(=O)[C@H]([C@@H](C)CC)NC1=O [BIM SAHBA2] (Ac-EIWIAQELR[S5]IGD[S5]FNAYYA-NH2; staple 10-14)
capacity to compete FITC-BIM SAHBA2 from BCL-XL (BCL-XL): effectively competed
capacity to compete FITC-BIM SAHBA2 from MCL-1 (MCL-1): effectively competed
capacity to compete FITC-BIM SAHBA2 from BFL-1/A1 (BFL-1/A1): effectively competed
IC50 (BAX [2]): 280 nM

Structure (SMILES): O=C1/C(=N\Nc2nccs2)C(c2ccccc2)=NN1c1nc(-c2ccc(F)cc2)cs1 [GAV2-008]
synergy with ABT-199 (venetoclax) (OCI-AML3 leukemia cells): significant synergistic cytotoxicity
synergy with ABT-263 (navitoclax) (OCI-AML3 leukemia cells): significant synergistic cytotoxicity
